Measured values: patent US12714688B2, “Margaric acid decreases PIEZ02-mediated pain” (The United States of America, as represented by The …, priority 2020, dated 2026)

Columns and labels:
[1] = test system: human iPSC-derived neurons; experiment: Voltage-activated currents in human iPSC-derived neurons; format: cell-based; conditions: 300 μM vs control
Excerpt: Human iPSC-derived neurons: For generating human peripheral sensory neuron cultures, a version of the healthy control WTC11 iPSC line was used. This line was previously engineered to harbor a doxycycline-inducible NGN2-BRN3A construct that enables rapid and efficient sensory neuron differentiation. Undifferentiated iPSCs were maintained in E8 flex medium (invitrogen) on polystyrene plates coated with Matrigel® (Corning). The medium was exchanged every 1-3 days, and the cells were passaged every 4-7 days with Accutase® (Invitrogen) and plated overnight with 10 μM of the ROCK-inhibitor Y-27632 (Tocris). For sensory neuron differentiation, iPSCs were seeded at 20,000 cells·(cm2)−1 in neural differentiation medium (NDM) on Matrigel®-coated plates. The cells were then re-plated after 48 hours at 50,000 cells·(cm^2)^−1 onto dishes coated with polyethylenimine (Sigma-Aldrich) and laminin (Invitrogen). NDM consisted of (all from Invitrogen) 1:1 DMEM/F12 and Neurobasal™ medium supplemented with N2, B27, and GlutaMAX™ at manufacturer-recommended dilution. 2 μg·ml^−1 doxycycline (Clontech) was included in the medium for the duration of the culture, 10 μM. Y-27632 was supplemented for the first 48 hours, and the following neurotrophic factors were added from day 8 onward at 10 ng/ml each (all from R&D systems): BDNF, GDNF, β-NGF, and NT-3. […]

endogenous PIEZO2 = biological target: T1, endogenous PIEZO2 (Homo sapiens, UniProt Q9H5I5); experiment: Whole-cell patch-clamp of mechanically activated currents in human iPSC-derived neurons; format: cell-based
T1 construct: endogenous in cells; host or cells: sensory neurons differentiated from human WTC11 iPSC line
Excerpt: Human iPSC-derived neurons: For generating human peripheral sensory neuron cultures, a version of the healthy control WTC11 iPSC line was used. This line was previously engineered to harbor a doxycycline-inducible NGN2-BRN3A construct that enables rapid and efficient sensory neuron differentiation. Undifferentiated iPSCs were maintained in E8 flex medium (invitrogen) on polystyrene plates coated with Matrigel® (Corning). The medium was exchanged every 1-3 days, and the cells were passaged every 4-7 days with Accutase® (Invitrogen) and plated overnight with 10 μM of the ROCK-inhibitor Y-27632 (Tocris). For sensory neuron differentiation, iPSCs were seeded at 20,000 cells·(cm2)−1 in neural differentiation medium (NDM) on Matrigel®-coated plates. The cells were then re-plated after 48 hours at 50,000 cells·(cm^2)^−1 onto dishes coated with polyethylenimine (Sigma-Aldrich) and laminin (Invitrogen). NDM consisted of (all from Invitrogen) 1:1 DMEM/F12 and Neurobasal™ medium supplemented with N2, B27, and GlutaMAX™ at manufacturer-recommended dilution. 2 μg·ml^−1 doxycycline (Clontech) was included in the medium for the duration of the culture, 10 μM.

PIEZO1 = PIEZO1 (Mus musculus, UniProt E2JF22); experiment: Whole-cell patch-clamp with mechanical indentation of N2A cells expressing endogenous Piezo1; conditions: IC50 of inhibition of PIEZO1 currents, mean±SEM
Protocol: Cell culture and electrophysiology: Piezo1 knock-out mouse N2A (N2A^Piezo1−/−) cells were a gift from Dr. Gary R. Lewin, human Merkel cell carcinoma cell line (MCC13 cells; Cell Bank Australia reference number: CBA1338) were obtained from Sigma, and DRG neurons were obtained from sacrificed mice. N2A^Piezo1−/− cells were cultured in Dulbecco's Modified Eagle Medium (DMEM), 5% penicillin streptomycin and 10% fetal bovine serum (FBS); MCC13 cells were cultured in RPMI 1640 (with 2 mM L-glutamine+25 mM HEPES; Sigma), 5% penicillin-streptomycin and 10% FBS and; DRG neurons were cultured in DMEM, 1% penicillin-streptomycin, 1% MEM vitamin solution, 1% L-glutamine, and 10% horse serum. Prior to electrophysiological measurements, N2A^Piezo1−/−, MCC13 and DRG neurons were supplemented overnight (≈18 h) with MA. […] MA was obtained from Nu-Chek Prep, INC. The cultured cells were maintained at 37° C., 95% relative humidity, and 5% CO2.
For whole-cell recordings, the bath solution contained 140 mM NaCl, 6 mM KCl, 2 mM CaCl2), 1 mM MgCl2, 10 mM glucose, and 10 mM HEPES (pH 7.4; 300 mOsm). […]
During mechanical stimulation, currents were recorded at a constant voltage (−60 mV, voltage-clamp), and voltages were recorded without injecting current (current-clamp). […]
Data analysis: Results were expressed as means±SD (unless otherwise noted). […]

[2] = also human Piezo2 in N2A^Piezo1−/− cells (FIG. 14c-d)

T1 sequence (Q9H5I5 whole entry): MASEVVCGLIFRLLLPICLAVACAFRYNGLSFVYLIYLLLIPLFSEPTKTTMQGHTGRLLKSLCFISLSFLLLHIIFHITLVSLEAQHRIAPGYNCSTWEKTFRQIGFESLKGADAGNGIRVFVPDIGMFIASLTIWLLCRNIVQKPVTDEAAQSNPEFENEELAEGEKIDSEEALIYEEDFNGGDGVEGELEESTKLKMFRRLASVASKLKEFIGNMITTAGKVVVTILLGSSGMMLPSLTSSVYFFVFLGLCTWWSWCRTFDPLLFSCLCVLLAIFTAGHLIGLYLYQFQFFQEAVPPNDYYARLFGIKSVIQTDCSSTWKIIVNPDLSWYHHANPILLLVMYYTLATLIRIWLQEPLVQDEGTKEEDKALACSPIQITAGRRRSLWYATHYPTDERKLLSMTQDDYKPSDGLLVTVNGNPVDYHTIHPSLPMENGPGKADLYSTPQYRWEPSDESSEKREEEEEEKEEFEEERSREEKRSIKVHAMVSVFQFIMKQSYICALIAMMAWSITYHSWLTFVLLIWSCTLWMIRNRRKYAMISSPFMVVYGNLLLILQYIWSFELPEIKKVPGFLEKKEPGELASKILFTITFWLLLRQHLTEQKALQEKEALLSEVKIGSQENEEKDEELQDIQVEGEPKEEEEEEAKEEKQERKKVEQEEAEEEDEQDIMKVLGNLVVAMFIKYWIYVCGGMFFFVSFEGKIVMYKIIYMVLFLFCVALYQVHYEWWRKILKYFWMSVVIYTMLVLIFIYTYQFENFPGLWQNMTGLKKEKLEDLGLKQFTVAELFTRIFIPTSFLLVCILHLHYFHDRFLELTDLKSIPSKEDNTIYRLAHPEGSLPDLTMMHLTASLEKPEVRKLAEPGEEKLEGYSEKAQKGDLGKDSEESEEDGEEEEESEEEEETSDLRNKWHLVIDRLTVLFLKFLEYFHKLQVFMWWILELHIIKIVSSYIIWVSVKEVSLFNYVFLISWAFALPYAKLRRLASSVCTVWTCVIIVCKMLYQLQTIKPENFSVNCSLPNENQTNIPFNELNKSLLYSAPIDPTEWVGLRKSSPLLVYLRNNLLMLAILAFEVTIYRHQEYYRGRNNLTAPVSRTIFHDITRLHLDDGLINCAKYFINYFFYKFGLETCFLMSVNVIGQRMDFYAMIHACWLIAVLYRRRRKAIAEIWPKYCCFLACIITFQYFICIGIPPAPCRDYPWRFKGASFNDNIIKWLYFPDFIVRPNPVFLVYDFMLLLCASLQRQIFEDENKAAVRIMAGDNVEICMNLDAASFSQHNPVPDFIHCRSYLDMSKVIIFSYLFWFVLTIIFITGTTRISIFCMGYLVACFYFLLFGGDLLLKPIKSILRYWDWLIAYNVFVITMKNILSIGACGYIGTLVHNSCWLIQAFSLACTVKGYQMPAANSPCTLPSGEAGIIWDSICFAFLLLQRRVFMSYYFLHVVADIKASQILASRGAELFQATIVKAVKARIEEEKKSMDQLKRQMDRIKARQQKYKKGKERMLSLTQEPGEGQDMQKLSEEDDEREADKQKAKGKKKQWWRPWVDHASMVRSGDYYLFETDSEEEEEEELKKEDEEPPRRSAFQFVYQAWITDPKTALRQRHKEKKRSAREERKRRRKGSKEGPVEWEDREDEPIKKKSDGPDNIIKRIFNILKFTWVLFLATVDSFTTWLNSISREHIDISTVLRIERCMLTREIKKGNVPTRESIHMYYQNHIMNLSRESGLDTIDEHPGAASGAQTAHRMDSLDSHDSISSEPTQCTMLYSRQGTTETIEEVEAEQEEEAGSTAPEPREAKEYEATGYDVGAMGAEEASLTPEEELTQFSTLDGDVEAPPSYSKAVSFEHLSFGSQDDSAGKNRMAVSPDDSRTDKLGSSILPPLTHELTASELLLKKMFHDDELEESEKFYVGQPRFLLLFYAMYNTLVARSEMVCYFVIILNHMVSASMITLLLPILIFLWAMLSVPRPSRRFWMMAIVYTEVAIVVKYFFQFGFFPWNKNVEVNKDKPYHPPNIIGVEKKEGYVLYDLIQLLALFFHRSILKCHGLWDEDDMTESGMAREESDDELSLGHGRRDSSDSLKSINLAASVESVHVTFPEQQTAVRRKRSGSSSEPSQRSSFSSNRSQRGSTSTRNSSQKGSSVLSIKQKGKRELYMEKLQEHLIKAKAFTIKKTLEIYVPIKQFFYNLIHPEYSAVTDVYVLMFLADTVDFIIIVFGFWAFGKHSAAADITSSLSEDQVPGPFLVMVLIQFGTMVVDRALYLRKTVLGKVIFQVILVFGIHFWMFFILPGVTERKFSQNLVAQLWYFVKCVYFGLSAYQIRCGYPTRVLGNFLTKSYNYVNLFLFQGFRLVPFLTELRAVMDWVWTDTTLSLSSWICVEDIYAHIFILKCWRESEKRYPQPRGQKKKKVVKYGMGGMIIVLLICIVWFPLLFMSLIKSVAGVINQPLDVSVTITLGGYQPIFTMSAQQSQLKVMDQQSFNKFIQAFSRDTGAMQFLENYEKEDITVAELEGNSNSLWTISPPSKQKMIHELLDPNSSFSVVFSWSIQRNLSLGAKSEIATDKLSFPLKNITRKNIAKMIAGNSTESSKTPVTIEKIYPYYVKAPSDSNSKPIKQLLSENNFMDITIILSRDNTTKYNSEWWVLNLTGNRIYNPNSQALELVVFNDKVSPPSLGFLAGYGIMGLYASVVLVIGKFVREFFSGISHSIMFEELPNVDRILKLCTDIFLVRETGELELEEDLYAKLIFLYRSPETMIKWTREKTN

Question: For `CCCCCCCCCCCCCCCCC(=O)O` [MA, heptadecanoic acid], which “voltage-activated inward Na+ and outward K+ currents” value [1] is on record?
Answer: did not change voltage-activated inward Na+ and outward K+ currents

Question: And the “effect on PIEZO2 currents” value (endogenous PIEZO2; 50 μM each day for 5 days)?
Answer: significantly decreased PIEZO2 currents

Question: And the “effect on endogenous PIEZO2 currents” value (endogenous PIEZO2; 300 and 600 μM overnight)?
Answer: significantly reduced endogenous PIEZO2 currents

Question: What about the “mechanical threshold needed to activate the human channel” value (endogenous PIEZO2; [2]) of the same molecule?
Answer: increased the mechanical threshold needed to activate the human channel

Question: And the “time constant of inactivation” value (endogenous PIEZO2; [2])?
Answer: without altering the time constant of inactivation

Question: What about the IC50 (PIEZO1; MA 1-300 μM 18 h) of the same molecule?
Answer: 28.3 ± 3.4 µM

Question: And the IC50 (PIEZO1; latrunculin A-treated cells, MA 1-300 μM 18 h plus latrunculin A)?
Answer: 25.6 µM
